# According to patent US8076351B2, “Camptothecin derivatives with antitumor activity” (Indena S.p.A., priority 2006, dated 2011):
# Read-outs that look alike come from different tables or passages of the source.
# Key:
# [1] = tested on: NCI-H460 cell line (NSCL cancer); test: Cell growth inhibition assay (cytotoxicity, cell count); format: cell-based, human
# Experimental: The compounds of the invention were tested in a cytotoxicity assay on a wide spectrum of tumour cells. By way of example, the cytotoxicity data on the NCI-H460 cell line (NSCL cancer) concerning two compounds of formula (I) are reported, using camptothecin and the drugs Topotecan and SN-38 as references:
# H460 Cells from human large cell lung tumor were cultured in RPMI-1640 medium containing 10% foetal calf serum. Cell sensitivity was determined by cell growth inhibition assay after 1 or 72 hr drug exposure. The cells in logarithmic growth were collected and seeded in duplicate in 6-wells plates. […] IC50 is defined as the concentration inhibiting by 50% cell growth compared with untreated controls growth.
# [2] = target: T1, human recombinant enzyme (full length top1) (Homo sapiens, UniProt P11387); test: Topoisomerase-I-dependent DNA rupture assay, DNA damage persistence; format: biochemical; settings: 30 min incubation with 10 μM drug
# T1 construct: the human recombinant enzyme (full length top1)
# T1 sequence (P11387 1-765): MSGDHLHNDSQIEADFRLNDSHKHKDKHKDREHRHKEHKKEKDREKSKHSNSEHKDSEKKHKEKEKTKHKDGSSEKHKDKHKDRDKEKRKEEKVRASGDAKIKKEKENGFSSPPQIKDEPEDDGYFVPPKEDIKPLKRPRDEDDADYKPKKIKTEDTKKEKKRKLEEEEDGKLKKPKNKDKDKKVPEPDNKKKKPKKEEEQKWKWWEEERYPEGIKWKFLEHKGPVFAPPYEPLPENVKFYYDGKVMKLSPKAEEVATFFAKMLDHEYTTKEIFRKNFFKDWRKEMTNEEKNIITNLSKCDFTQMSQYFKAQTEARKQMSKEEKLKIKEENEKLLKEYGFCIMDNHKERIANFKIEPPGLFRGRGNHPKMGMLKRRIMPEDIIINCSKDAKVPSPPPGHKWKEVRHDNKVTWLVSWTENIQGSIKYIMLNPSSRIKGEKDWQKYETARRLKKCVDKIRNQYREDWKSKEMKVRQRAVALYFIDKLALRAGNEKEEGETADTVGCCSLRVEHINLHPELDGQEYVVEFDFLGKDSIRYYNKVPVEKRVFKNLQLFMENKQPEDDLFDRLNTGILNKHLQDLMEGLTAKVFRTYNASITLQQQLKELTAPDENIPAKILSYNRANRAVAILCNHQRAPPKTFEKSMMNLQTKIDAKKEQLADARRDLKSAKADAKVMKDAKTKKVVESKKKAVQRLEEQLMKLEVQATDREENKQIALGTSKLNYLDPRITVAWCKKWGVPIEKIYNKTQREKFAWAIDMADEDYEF
# Experimental: DNA ruptures were determined using a 751-bp BamHI-EcoRI DNA SV40 purified gel (Beretta G L, Binaschi M, Zagni A N D, Capuani L, Capranico G. Tethering a type IB topoisomerase to a DNA site by enzyme fusion to a heterologous site-selective DNA-binding protein domain. Cancer Res 1999; 59:3689-97). DNA fragments were only labeled at 3′. The DNA rupture reaction (20,000 cpm/sample) was carried out in […] of 10 mM Tris-HCL (pH 7.6), 150 mM KCl, 5 mM MgCl2, 15 μg/mL BSA, 0.1 mM thiothreitol, and the human recombinant enzyme (full length top1) for 30 min at 37° C. The reactions were blocked using 0.5% SDS and 0.3 mg/mL K proteinase for 45 min. at 42° C. DNA damage persistence was tested at different times adding 0.6M NaCl after 30 min. incubation with 10 μM of the drug. After precipitation, DNA was resuspended in denaturation buffer (80% formamide, 10 mM NaOH, 0.01 M EDTA and 1 mg/mL dye) before seeding in desaturating gel (7% polyacrylamide in TBE buffer).
# [3] = NCI-H460, H460 human large cell lung tumor cells, 1 or 72 hr drug exposure, counted with Coulter counter 72 hours after exposure, read-out: NCI-H460 IC50 (μg/mL) Cell count
# [4] = Time 0 min after adding 0.6M NaCl
# [5] = Time 1 min after adding 0.6M NaCl
# [6] = Time 5 min after adding 0.6M NaCl
# [7] = Time 10 min after adding 0.6M NaCl
Compound,"IC50 [1, 3]","Persitence of DNA damage (%) [2, 4]","Persitence of DNA damage (%) [2, 5]","Persitence of DNA damage (%) [2, 6]","Persitence of DNA damage (%) [2, 7]","IC50 ([1]; Homo sapiens, NCI-H460, read-out: NCI-H460 IC50 (μg/mL) Cell count)"
CC[C@@]1(O)C(=O)OCc2c1cc1n(c2=O)Cc2cc3ccccc3nc2-1 [Camptothecin],0.115 ± 0.0174 µg/mL,100%,58%,23%,20%,–
CC[C@@]1(O)C(=O)OCC2=C1C=C1c3nc4ccccc4cc3C3NN=C2N13 (stereo partly drawn) [IDN 6132],17 ± 4.25 µg/mL,100%,45%,32%,20%,–
"CC[C@@]1(O)C(=O)OCc2c1cc1c3nc4ccccc4cc3c3nnc2n13 [IDN 6137, triazole[5,4-c]16a-deoxocamptothecin]",–,–,–,–,–,3.8 ± 1.08 µg/mL
"CCc1c2c(nc3ccc(O)cc13)-c1cc3c(c(=O)n1C2)COC(=O)[C@]3(O)CC [SN38, 10-hydroxy-7-ethylcamptothecin]",0.0865 ± 0.0049 µg/mL,100%,60%,33%,28%,–
CC[C@@]1(O)C(=O)OCc2c1cc1n(c2=O)Cc2cc3c(CN(C)C)c(O)ccc3nc2-1 [Topotecan],0.63 ± 0.44 µg/mL,100%,65%,20%,10%,–
